These results are taken from patent US12304912B2, “Fused bicyclic RAF inhibitors and methods for use thereof” (Jazz Pharmaceuticals Ireland Limited, priority 2020, dated 2025).

The microsomal CLint is the rate of metabolic loss divided by the concentration.

Data set [1] is described as follows: Microsomal stability assay, mouse liver microsomes (MLM). In kind it is in vitro ADME. To be noted: 0.5 mg/mL protein, 1 μM substrate. As to the method: (§1) Microsomal Stability Assay
(§2) The stability studies were performed manually using the substrate depletion approach. Test compounds were incubated at 37° C. with cryo-preserved mouse or human liver microsomes (Corning) at a protein concentration of 0.5 mg·mL^−1 and a final substrate concentration of 1 μM. Aliquots were removed from the incubation at defined timepoints and the reaction was terminated by adding to ice-cold organic solvent. Compound concentrations were determined by LC-MS/MS analysis. The natural log of the percentage of compound remaining was plotted against each time point and the slope determined. The half-life (t1/2) and CLint were calculated using Equations 1 and 2, respectively.
(§3) HLM (human liver microsomes) and MLM (mouse liver microsomes) stability assay results are described in Tables 1-2.

Data set [2] is described as follows: Plasma protein binding assay, mouse plasma (mPPB). To be noted: 5 μM, equilibrium dialysis 4 hours 37° C. Format: in vitro ADME. As to the method:
(§4) Plasma Protein Binding Assay The plasma protein binding was determined by the equilibrium dialysis method. A known concentration of compound (5 μM) in previously frozen human or mouse plasma (Sera Labs) was dialysed against phosphate buffer using a RED device (Life Technologies) for 4 hours at 37° C. The concentration of compound in the protein containing (PC) and protein free (PF) sides of the dialysis membrane were determined by LC-MS/MS and the % free compound was determined by equation 4. Data analysis was performed using Excel (Microsoft, USA). % free=(1−((PC−PF)/PC))×100 (4) hPPB (human plasma protein binding) and mPPB (mouse plasma protein binding) results are described in Tables 1-2.
For orientation: Equilibrium dialysis compares concentrations on both sides of a semipermeable membrane.

The nature of data set [3]: Plasma protein binding assay, human plasma (hPPB). Format: in vitro ADME. To be noted: 5 μM, equilibrium dialysis 4 hours 37° C. As to the method:
as §4

Data set [4] can be described thus: Solubility (Sol), medium not stated. Format: physicochemical. To be noted: cells not marked (FESSIF).
The nature of data set [5]: Microsomal stability assay, human liver microsomes (HLM). In kind it is in vitro ADME. Conditions: 0.5 mg/mL protein, 1 μM substrate. As to the method:
as §1, §2, §3
For orientation: Liver microsomes are a subcellular fraction often used to study metabolism.

Data set [6] concerns RAF dimers in HCT-116 cells. Kind of data set: HCT-116 AlphaLISA SureFire pERK1/2 cellular assay (dimer). Conditions: Homo sapiens, HCT-116; HCT116 cells pre-dosed with 1 μM Encorafenib, 1 hr; read-out: pERK HCT116 dimer (1 hr) pIC50 (converted). In kind it is cell-based. As to the method: (§5) The human HCT-116 colorectal carcinoma cell line (ATCC CCL-247) endogenously expresses the KRAS^G13D mutation, which leads to constitutive activation of the MAP kinase pathway and phosphorylation of ERK. […] Assay read outs took place 2 or 24 hours after dosing with compounds. On the first day, HCT-116 cells were harvested, resuspended in growth medium (McCoys5A with Glutamax (Life Technologies 36600021) and 10% heat-inactivated fetal bovine serum (Sigma F9665)), and counted. Cells were plated in 100 μl per well in each well of a 96-well culture dish (Sigma CLS3598) to a final density of 30,000 (2 hr read) or 15,000 (24 hr read) cells per well and incubated over night at 37° C. and 5% CO2. On day 2, the growth medium was exchanged for dosing medium (McCoys5A with Glutamax (Life Technologies 36600021) and 1% heat-inactivated fetal bovine serum (Sigma F9665)) and the cells were dosed with compounds to produce a 10-point dose response, where the top concentration was 1 μM and subsequent concentrations were at 1/3 log dilution intervals. A matched DMSO control was included. The cells were subsequently incubated for either 2 or 24 hours at 37° C. and 5% CO2. After incubation, media was removed and the cells were incubated with lysis buffer containing phosphatase inhibitors for 15 minutes at room temperature. Cell lysates were transferred to a 12 area 96 well white Optiplate™ (Perkin Elmer 6005569) and incubated with anti-mouse IgG acceptor beads, a biotinylated anti-ERK1/2 rabbit antibody recognizing both phosphorylated and non-phosphorylated ERK1/2, a mouse antibody targeted to the Thr202/Tyr204 epitope and recognizing phosphorylated ERK proteins only, and streptavidin-coated donor beads. The biotinylated antibody binds to the streptavidin-coated donor beads and the phopsho-ERK1/2 antibody binds to the acceptor beads. Plates were read on an EnVision reader (Perkin Elmer) and excitation of the beads at 680 nm with a laser induced the release of singlet oxygen molecules from the donor beads that trigger energy transfer to the acceptor beads in close proximity, producing a signal that can be measured at […]. Both antibodies bound to phosphorylated ERK proteins, bringing the donor and acceptor beads into close proximity. All data were analyzed using the Dotmatics or GraphPad Prism software packages. Inhibition of ERK phosphorylation was assessed by determination of the absolute IC50 value, which is defined as the concentration of compound required to decrease the level of phosphorylated ERK proteins by 50% when compared to DMSO control.
HCT-116 AlphaLISA SureFire pERK1/2 Cellular Assay (Dimer)
The human HCT-116 colorectal carcinoma cell line (ATCC CCL-247) endogenously expresses the KRAS^G13D mutation, which leads to constitutive activation of the MAP kinase pathway and phosphorylation of ERK. First generation RAF inhibitors can promote RAF dimer formation in KRAS mutant tumours leading to a paradoxical activation of the pathway. To determine whether compounds can circumvent this problem and inhibit RAF dimers in HCT-116 cells, they were tested using AlphaLISA® SureFire® technology (Perkin Elmer p-ERK1/2 p-T202/Y204 assay kit ALSU-PERK-A10K). The main procedure is essentially the same as described above, with the following adjustments: Cells were seeded with the seeding density of 30,000 cells per well. On the second day (the day of dosing) no medium change was performed and the cells were dosed with 1 μM of Encorafenib for 1 hour (at 37° C. and 5% CO2) to induce RAF dimers and promote paradoxical dimer-dependent pERK signalling. After incubation, the cells were washed, 100 μl fresh growth medium was added, and cells were dosed with compounds of interest to produce a 10-point dose response, where the top concentration was 10 μM and subsequent concentrations are at 1/2 log dilution intervals. Cells were incubated for another hour at 37° C. and 5% CO2 before lysis and processing with the pERK AlphaLISA® SureFire® kit as described above. […]
For orientation: In Alpha technology, singlet oxygen from a donor bead excites a nearby acceptor bead.

In data set [7] the test system is BRAF monomers in A375 cells. The experiment in a line: A375 AlphaLISA SureFire pERK1/2 cellular assay (monomer). In kind it is cell-based. Conditions: Homo sapiens, A-375; A375 cells, 1 hr; read-out: pERK A375 (1 hr) pIC50 (converted). As to the method: as §5
A375 AlphaLISA SureFire pERK1/2 Cellular Assay (Monomer)
The human A375 melanoma cell line (ATCC CRL-1619) endogenously expresses the BRAF^V600E mutation, which leads to constitutive activation of the MAP kinase pathway and phosphorylation of ERK. In BRAF^V600E mutant tumours, BRAF signals as a monomer to activate ERK. To determine whether compounds can inhibit BRAF monomers in A375 cells, they were tested using AlphaLISA® SureFire® technology (Perkin Elmer p-ERK1/2 p-T202/Y204 assay kit ALSU-PERK-A10K). The main procedure is essentially the same as described above for HCT-116 cells, with the following adjustments: The A375 cells were cultivated and dosed in Dulbecco's modified Eagle's medium containing 4.5 g/L D-glucose (Sigma D6546), 10% heat-inactivated fetal bovine serum (Sigma F9665), and 1% Sodium-Pyruvate (Sigma S8636), and seeded with a seeding density of 30,000 cells per well. No media exchange was performed before dosing with compounds to produce a 10-point dose response, where the top concentration was 10 μM and subsequent concentrations were at 1/2 log dilution intervals. Subsequently, the cells were incubated for 1 hour at 37° C. and 5% CO2 before lysis.

For the molecule `COc1ccccc1-c1c[nH]c(C2COc3ccc(Oc4ccnc5c4CCC(=O)N5)cc3C2)n1` (centres unmarked) [Compound 1, 5-[3-[4-(2-methoxyphenyl)-1H-imidazol-2-yl]chroman-6-yl]oxy-3,4-dihydro-1H-1,8-naphthyridin-2-one], the microsomal CLint at 1 μM is 109 µL/min/mg in data set [1] and 123 µL/min/mg in data set [5]. In addition, the “mPPB (% free)” value in data set [2] is given as 0.5 % free. Further, the “hPPB (% free)” value in data set [3] amounted to 0.2 % free. For the same molecule, the Sol in data set [4] is given as below 1.2 mg/L. For the same molecule, the IC50 was 67.6 nM in data set [6] and 28.2 nM in data set [7].

Regarding `N#Cc1cccc(-c2c[nH]c(C3COc4ccc(Oc5ccnc6c5CCC(=O)N6)cc4C3)n2)c1` (centres unmarked) [Compound 16, 3-[2-[6-[(7-oxo-6,8-dihydro-5H-1,8-naphthyridin-4-yl)oxy]chroman-3-yl]-1H-imidazol-4-yl]benzonitrile], the Sol in data set [4] is recorded as below 1.2 mg/L. Moreover, the IC50 was 617 nM in data set [6] and 575 nM in data set [7].

`O=C1CCc2c(Oc3ccc4c(c3)CC(c3nc5cc(C(F)(F)F)cc(Cl)c5[nH]3)CO4)ccnc2N1` (centres unmarked) [Compound 30]: in data set [4], the Sol was below 1.3 mg/L. Besides, the results for the IC50 in data set [6] and in data set [7] were 1320 nM and 162 nM, respectively.

In the case of `CN(C)Cc1cc(C(F)(F)F)c2nc(C3COc4ccc(Oc5ccnc6c5CCC(=O)N6)cc4C3)[nH]c2c1` (centres unmarked) [Compound 34], the figures for the intrinsic clearance (microsomal CLint) at 1 μM in data set [1] and in data set [5] were 8.6 µL/min/mg and 46.9 µL/min/mg, respectively. Moreover, in data set [2], the “mPPB (% free)” value was found to be 3.2 % free. Moreover, in data set [3], the “hPPB (% free)” value was found to be 0.7 % free. This molecule yielded a Sol in data set [4] of 28.7 mg/L. Also, the IC50 in data set [7] was 4470 nM.

For the molecule `O=C1CCc2c(Oc3ccc4c(c3)CC(c3cc(-c5ccccc5C(F)(F)F)n[nH]3)CO4)ccnc2N1` (centres unmarked) [Compound 35, 5-[3-[3-[2-(trifluoromethyl)phenyl]-1H-pyrazol-5-yl]chroman-6-yl]oxy-3,4-dihydro-1H-1,8-naphthyridin-2-one], the microsomal CLint at 1 μM was 42.1 µL/min/mg in data set [1] and 277 µL/min/mg in data set [5]. Moreover, the “hPPB (% free)” value in data set [3] is reported as below 0.1 % free. In data set [4], this molecule registered a Sol below 1.3 mg/L. Moreover, the values for the IC50 in data set [6] and in data set [7] were 525 nM and 2450 nM, respectively.

For `O=C1CCc2c(Oc3ccc4c(c3)CC(c3cc(-c5ccccc5Cl)n[nH]3)CO4)ccnc2N1` (centres unmarked) [Compound 36], the values for the intrinsic clearance (microsomal CLint) at 1 μM in data set [1] and in data set [5] were 18.4 µL/min/mg and 23.5 µL/min/mg, respectively. The “mPPB (% free)” value in data set [2] is below 0.1 % free. Further, the Sol in data set [4] was below 1.2 mg/L. Further, the results for the IC50 in data set [6] and in data set [7] were 174 nM and 525 nM, respectively.

On to `O=C1CCc2c(Oc3ccc4c(c3)CC(c3cc(-c5cccc(Cl)c5)n[nH]3)CO4)ccnc2N1` (centres unmarked) [Compound 37], for which, in data set [1], the microsomal CLint at 1 μM came out at 18.4 µL/min/mg. Moreover, in data set [4], the Sol is reported as below 1.2 mg/L. The IC50 in data set [6] was 339 nM; in data set [7], 501 nM.

Consider `O=C1CCc2c(Oc3ccc4c(c3)CC(c3cc(-c5ccc(C(F)(F)F)cc5)n[nH]3)CO4)ccnc2N1` (centres unmarked) [Compound 38], for which the intrinsic metabolic clearance (microsomal CLint) at 1 μM in data set [1] was found to be 4.3 µL/min/mg; in data set [5] it was 3 µL/min/mg. The Sol in data set [4] was below 1.3 mg/L. The results for the IC50 in data set [6] and in data set [7] were 3980 nM and 8510 nM, respectively.

Turning to `COc1ccccc1-c1cc(C2COc3ccc(Oc4ccnc5c4CCC(=O)N5)cc3C2)[nH]n1` (centres unmarked) [Compound 40], the intrinsic metabolic clearance (microsomal CLint) at 1 μM in data set [1] was found to be 27.1 µL/min/mg. The molecule also came in with a Sol in data set [4] below 1.2 mg/L. Also, the IC50 in data set [6] is 324 nM; in data set [7], 251 nM.

As to `COc1cccc(-c2cc(C3COc4ccc(Oc5ccnc6c5CCC(=O)N6)cc4C3)[nH]n2)c1` (centres unmarked) [Compound 41], in data set [1], the intrinsic metabolic clearance (microsomal CLint) at 1 μM came to 46.1 µL/min/mg. In data set [2], the “mPPB (% free)” value was determined as 1.2 % free. For the same molecule, the Sol in data set [4] is given as below 1.2 mg/L. Further, the IC50 is 302 nM in data set [6] and 513 nM in data set [7].

On to `O=C1CCc2c(Oc3ccc4c(c3)CC(c3cc(-c5cccc(C(F)(F)F)c5)n[nH]3)CO4)ccnc2N1` (centres unmarked) [Compound 42], for which the intrinsic clearance (microsomal CLint) at 1 μM in data set [1] amounted to 22 µL/min/mg; in data set [5], 10.6 µL/min/mg. For the same molecule, the “mPPB (% free)” value in data set [2] was below 0.1 % free. The same molecule showed a Sol in data set [4] below 1.3 mg/L. In addition, the results for the IC50 in data set [6] and in data set [7] were 741 nM and 891 nM, respectively.

In the case of `O=C1CCc2c(Oc3ccc4c(c3)CN(C(=O)Nc3ccccc3)CC4)ccnc2N1` [Compound 46, 7-[(7-oxo-6,8-dihydro-5H-1,8-naphthyridin-4-yl)oxy]-N-phenyl-3,4-dihydro-1H-isoquinoline-2-carboxamide], the microsomal CLint at 1 μM in data set [1] is 45.5 µL/min/mg; in data set [5], 18.4 µL/min/mg. The “mPPB (% free)” value in data set [2] is 2.3 % free. Moreover, the “hPPB (% free)” value in data set [3] is given as 1.9 % free. The Sol in data set [4] is listed as below 1 mg/L.

On to `c1ccc(-c2c[nH]c(C3COc4ccc(OC5CCOCC5)cc4C3)n2)cc1` (centres unmarked) [compound 51], for which the microsomal CLint at 1 μM stood at 123 µL/min/mg in data set [1] and 156 µL/min/mg in data set [5]. Besides, the “mPPB (% free)” value in data set [2] was found to be 2.6 % free. For the same molecule, the “hPPB (% free)” value in data set [3] is 0.5 % free. This molecule showed a Sol in data set [4] of 1.2 mg/L.
